Test [1] addresses T1, Serine/threonine-protein kinase NLK (Homo sapiens) (UniProt Q9UBE8).
T1 sequence (whole entry): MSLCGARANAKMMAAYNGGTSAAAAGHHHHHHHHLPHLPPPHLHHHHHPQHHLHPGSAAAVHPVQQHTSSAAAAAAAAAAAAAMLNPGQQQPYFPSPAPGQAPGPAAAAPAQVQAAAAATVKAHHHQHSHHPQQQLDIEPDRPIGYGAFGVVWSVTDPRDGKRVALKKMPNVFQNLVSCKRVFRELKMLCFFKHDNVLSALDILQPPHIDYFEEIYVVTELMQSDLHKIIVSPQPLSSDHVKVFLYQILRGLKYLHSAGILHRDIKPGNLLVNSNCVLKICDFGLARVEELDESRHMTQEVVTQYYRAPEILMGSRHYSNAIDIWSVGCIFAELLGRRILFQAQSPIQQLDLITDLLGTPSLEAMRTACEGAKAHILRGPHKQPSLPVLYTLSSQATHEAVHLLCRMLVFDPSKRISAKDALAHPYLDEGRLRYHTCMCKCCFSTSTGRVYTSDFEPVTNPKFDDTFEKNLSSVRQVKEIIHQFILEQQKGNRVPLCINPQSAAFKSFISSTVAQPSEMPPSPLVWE
Put plainly: Selectivity interaction (LanthaScreen Eu Kinase Binding Assay) EUB0001632a NLK. Particulars: at 10 µM. In general terms: In TR-FRET formats the signal depends on donor and acceptor labels being close together.

In test [2] the target is T2, Phosphatidylinositol 5-phosphate 4-kinase type-2 beta (Homo sapiens) (UniProt P78356).
T2 sequence (whole entry): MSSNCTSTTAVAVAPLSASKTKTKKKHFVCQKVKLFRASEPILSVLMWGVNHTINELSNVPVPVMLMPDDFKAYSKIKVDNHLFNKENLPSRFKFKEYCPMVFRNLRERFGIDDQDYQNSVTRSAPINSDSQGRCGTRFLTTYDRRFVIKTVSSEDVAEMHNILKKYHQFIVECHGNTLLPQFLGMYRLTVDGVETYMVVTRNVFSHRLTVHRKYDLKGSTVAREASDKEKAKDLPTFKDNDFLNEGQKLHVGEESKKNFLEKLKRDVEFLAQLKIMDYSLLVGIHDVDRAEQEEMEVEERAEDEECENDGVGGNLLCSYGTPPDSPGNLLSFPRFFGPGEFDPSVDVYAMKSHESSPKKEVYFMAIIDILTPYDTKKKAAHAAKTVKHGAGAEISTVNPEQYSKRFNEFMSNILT
The test is described as follows: Selectivity interaction (ActivX KiNativ screen (ex vivo kinase selectivity in human PBMCs)) EUB0001619a PIP4K2B. It is filed as cell-based. The conditions noted are these: PBMC, at 1 µM.

Test [3] addresses Substance-K receptor (Homo sapiens) (UniProt P21452). Put plainly: Selectivity interaction (Eurofins CEREP Diversity Profile (receptors and ion channels)) EUB0000279b TACR2. The conditions noted are these: at 10 µM.
The target in test [4] is Serine/threonine-protein kinase 16 (Homo sapiens, UniProt O75716). The conditions noted are these: at 10 µM.
Serine/threonine-protein kinase 16, sequence (O75716 whole entry): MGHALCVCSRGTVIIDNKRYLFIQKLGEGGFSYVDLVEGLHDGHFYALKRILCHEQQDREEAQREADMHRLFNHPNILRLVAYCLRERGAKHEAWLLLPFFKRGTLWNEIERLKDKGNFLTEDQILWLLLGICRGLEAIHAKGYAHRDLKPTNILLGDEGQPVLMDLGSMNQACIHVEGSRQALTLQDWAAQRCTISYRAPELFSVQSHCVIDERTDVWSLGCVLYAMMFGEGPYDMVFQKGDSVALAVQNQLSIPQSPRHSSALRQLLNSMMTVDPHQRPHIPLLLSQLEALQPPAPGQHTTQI
Test [5] addresses T3, Receptor-type tyrosine-protein kinase FLT3 (Homo sapiens, UniProt P36888).
T3 sequence (P36888 whole entry): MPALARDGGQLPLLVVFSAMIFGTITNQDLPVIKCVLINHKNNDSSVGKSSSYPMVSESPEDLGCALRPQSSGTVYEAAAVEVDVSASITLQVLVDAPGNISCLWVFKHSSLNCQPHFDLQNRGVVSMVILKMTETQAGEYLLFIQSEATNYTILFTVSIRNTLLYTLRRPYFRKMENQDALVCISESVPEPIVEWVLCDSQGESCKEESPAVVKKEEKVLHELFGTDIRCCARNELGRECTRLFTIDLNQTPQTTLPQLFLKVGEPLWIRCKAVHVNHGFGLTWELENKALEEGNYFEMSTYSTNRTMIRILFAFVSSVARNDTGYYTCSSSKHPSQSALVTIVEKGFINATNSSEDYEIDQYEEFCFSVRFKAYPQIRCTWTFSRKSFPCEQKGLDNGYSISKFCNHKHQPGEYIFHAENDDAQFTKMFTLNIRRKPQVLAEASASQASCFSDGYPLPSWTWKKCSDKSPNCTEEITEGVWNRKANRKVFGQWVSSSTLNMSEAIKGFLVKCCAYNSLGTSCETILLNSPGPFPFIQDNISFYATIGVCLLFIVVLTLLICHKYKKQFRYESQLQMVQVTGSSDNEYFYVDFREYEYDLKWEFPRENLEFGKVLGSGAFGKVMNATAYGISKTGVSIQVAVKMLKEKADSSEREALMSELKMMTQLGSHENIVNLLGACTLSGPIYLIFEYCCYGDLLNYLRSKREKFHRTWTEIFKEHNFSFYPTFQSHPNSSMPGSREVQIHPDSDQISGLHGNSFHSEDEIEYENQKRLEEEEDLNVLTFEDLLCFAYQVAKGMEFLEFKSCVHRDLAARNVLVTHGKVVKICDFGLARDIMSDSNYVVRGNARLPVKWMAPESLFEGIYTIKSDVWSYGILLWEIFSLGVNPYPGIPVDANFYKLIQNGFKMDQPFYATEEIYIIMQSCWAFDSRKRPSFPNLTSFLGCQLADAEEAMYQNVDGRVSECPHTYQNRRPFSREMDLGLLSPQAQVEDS

The target in test [6] is Gastrin/cholecystokinin type B receptor (Homo sapiens, UniProt P32239). The test is described as follows: Selectivity interaction (Cholecystokinin B receptor binding assay, human recombinant ) EUB0000877a CCKBR.
Gastrin/cholecystokinin type B receptor, sequence (P32239 whole entry): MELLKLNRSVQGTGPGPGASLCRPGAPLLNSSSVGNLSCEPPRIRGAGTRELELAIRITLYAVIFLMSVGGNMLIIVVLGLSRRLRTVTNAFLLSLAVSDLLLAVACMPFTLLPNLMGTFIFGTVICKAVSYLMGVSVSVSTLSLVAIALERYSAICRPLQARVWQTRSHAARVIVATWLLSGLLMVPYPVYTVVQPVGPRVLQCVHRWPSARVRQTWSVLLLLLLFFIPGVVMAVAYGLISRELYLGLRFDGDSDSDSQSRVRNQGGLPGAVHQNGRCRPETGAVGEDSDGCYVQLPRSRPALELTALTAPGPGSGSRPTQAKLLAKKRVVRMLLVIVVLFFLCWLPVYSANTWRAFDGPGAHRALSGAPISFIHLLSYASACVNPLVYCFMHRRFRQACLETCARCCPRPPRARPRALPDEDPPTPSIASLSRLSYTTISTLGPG
In test [7] the target is Fibroblast growth factor receptor 3 (Homo sapiens, UniProt P22607). The test is described as follows: (§1) Selectivity interaction (KinomeScan (DiscoverX)) EUB0000655a FGFR3. Particulars: at 10 µM.
Fibroblast growth factor receptor 3, sequence (P22607 23-806 limits assumed): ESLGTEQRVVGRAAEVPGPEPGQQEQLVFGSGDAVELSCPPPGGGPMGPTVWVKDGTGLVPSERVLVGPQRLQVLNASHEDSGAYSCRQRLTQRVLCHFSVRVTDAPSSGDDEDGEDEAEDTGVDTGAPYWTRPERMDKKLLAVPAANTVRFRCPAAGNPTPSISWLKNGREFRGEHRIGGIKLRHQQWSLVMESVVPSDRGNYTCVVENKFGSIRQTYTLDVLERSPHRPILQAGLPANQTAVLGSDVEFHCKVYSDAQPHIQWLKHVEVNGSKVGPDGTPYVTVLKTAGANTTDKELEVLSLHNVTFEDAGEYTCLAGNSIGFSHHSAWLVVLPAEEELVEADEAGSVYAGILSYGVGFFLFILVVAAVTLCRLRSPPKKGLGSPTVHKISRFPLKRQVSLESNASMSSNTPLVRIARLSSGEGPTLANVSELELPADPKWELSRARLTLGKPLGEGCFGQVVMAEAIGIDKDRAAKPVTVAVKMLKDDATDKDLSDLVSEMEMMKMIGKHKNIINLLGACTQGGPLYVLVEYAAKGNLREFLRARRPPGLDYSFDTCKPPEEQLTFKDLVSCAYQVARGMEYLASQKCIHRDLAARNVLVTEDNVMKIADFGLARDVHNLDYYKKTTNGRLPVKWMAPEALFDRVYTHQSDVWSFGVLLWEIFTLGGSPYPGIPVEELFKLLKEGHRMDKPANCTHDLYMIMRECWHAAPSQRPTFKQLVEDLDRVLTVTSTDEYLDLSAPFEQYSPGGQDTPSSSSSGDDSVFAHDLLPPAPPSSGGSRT
The test system of test [8] is Fibroblast growth factor receptor 3 (Homo sapiens), P22607 [G697C]. The description is as §1. The conditions noted are these: at 10 µM.
Fibroblast growth factor receptor 3 (Homo sapiens), P22607 [G697C], sequence (P22607 whole entry G697C): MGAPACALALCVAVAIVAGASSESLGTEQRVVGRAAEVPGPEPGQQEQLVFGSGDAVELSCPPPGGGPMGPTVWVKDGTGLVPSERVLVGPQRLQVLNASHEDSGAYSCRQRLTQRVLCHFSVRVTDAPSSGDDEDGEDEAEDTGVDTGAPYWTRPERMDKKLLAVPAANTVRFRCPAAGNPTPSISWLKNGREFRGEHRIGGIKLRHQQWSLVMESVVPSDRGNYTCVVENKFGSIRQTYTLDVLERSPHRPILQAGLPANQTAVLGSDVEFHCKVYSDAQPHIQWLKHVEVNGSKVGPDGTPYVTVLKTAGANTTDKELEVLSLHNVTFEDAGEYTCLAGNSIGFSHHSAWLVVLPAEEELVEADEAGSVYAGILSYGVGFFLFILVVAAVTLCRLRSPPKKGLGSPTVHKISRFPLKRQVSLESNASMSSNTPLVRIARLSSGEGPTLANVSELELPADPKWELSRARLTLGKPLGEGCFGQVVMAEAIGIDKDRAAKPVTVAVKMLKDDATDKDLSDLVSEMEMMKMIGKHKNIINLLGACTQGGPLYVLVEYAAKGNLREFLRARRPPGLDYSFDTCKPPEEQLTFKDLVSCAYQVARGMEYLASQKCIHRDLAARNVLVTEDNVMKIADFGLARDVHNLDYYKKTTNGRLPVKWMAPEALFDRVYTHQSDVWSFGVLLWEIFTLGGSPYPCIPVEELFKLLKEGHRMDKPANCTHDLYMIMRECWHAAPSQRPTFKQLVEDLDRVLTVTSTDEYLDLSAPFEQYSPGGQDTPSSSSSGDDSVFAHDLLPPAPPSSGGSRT
Test [9] addresses Ribosomal protein S6 kinase alpha-3 (Homo sapiens, UniProt P51812). Put plainly: Selectivity interaction (KinomeScan (DiscoverX)) EUB0000092b RPS6KA3. Particulars: at 10 µM.
The target in test [10] is [Pyruvate dehydrogenase (acetyl-transferring)] kinase isozyme 1, mitochondrial (Homo sapiens, UniProt Q15118). Put plainly: Selectivity interaction (Millipore kinase profiler) EUB0000124b PDK1. Particulars: at 10 µM.
Test [11] deals with Cyclin-dependent kinase 6 (Homo sapiens) (UniProt Q00534). Put plainly: Selectivity interaction (Kinase panel (KiNativ target engagement assay in Jurkat cells)) EUB0001635a CDK6. The conditions noted are these: Selectivity number of off-targets 0.0, Selectivity number of targets 233.0, Source Knowledge https://www.sciencedirect.com/science/article/pii/S2451945619300674?via%3Dihub, at 1 µM. The test is classed as cell-based.
Cyclin-dependent kinase 6 (Homo sapiens), sequence (Q00534 whole entry): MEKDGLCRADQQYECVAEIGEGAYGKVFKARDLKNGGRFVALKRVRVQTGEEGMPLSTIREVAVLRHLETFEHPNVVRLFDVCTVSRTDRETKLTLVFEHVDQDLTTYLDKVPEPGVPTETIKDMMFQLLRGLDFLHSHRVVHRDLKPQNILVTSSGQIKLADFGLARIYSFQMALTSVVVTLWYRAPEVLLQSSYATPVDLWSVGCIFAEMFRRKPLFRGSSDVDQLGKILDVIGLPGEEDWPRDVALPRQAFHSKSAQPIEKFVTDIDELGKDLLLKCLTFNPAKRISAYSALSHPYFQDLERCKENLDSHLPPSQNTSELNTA

SMILES strings stand for the structures.

By IC50 is commonly meant the concentration that inhibits the measured activity by half.

Ribosomal protein S6 kinase alpha-3, sequence (P51812 whole entry): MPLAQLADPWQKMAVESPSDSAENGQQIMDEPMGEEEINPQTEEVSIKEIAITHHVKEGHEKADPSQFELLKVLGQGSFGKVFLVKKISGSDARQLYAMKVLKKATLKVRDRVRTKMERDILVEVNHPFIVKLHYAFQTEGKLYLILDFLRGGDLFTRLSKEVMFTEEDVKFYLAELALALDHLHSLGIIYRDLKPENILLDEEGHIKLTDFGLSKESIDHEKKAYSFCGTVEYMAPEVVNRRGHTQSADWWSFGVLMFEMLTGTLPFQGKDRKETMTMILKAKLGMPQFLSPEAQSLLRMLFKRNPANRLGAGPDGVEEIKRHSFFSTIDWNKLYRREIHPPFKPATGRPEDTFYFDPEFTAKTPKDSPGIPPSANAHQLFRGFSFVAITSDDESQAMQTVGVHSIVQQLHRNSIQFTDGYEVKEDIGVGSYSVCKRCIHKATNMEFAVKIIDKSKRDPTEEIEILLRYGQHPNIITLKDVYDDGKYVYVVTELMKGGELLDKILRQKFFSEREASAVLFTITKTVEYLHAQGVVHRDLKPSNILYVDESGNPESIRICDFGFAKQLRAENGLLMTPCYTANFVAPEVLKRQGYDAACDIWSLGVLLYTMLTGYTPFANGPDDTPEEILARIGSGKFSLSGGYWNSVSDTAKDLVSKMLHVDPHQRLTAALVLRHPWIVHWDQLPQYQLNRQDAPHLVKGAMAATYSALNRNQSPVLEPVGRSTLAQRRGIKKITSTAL
Substance-K receptor (Homo sapiens), sequence (P21452 whole entry): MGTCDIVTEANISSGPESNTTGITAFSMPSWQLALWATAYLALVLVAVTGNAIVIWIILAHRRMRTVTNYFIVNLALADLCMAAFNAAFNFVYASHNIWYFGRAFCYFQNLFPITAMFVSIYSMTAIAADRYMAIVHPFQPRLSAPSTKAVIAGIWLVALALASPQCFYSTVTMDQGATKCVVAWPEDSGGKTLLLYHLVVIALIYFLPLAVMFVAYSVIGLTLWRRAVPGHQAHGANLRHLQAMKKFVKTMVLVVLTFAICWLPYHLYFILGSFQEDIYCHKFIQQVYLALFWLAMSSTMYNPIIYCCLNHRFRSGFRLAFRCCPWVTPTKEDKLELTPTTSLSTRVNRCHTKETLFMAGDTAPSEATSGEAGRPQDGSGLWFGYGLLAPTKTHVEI

With `Cn1cc(-n2cnc3c(NCc4nc5cc(Cl)c(Cl)cc5[nH]4)nc(N4CCOCC4)nc32)cn1`, the % of inhibition in [1] amounted to 13.4%.

In test [2], `N#Cc1cccc(-c2c[nH]c3ncnc(N4CCOCC4)c23)c1` had a % of inhibition of 16%. In turn, `CC(=O)c1cc(-c2ccccc2OCC2CC2)c2ncccn12` showed a % of control in [3] of 92%. For the molecule `Cc1cc([C@@H](C)Nc2ccccc2C(=O)O)c2nc(N3CCOCC3)cc(=O)n2c1` [AZD-6482], in [4], the % of control amounted to 77%. Regarding `CCc1cccc(CC)c1NC(=O)c1nn(C)c2c1CCc1cnc(Nc3ccc(C(=O)NC4CCN(C)CC4)cc3OC(F)(F)F)nc1-2`, the IC50 in test [5] was over 10 µM. In the case of `CCC(=O)N1CC[C@H](Nc2ncnc3c2CN(c2cnc(OC)c(C(F)(F)F)c2)CC3)C1` [LENIOLISIB], the IC50 in test [6] is over 30 µM. As to `CN(C)CCOc1ccc(-c2nc(-c3ccncc3)c(-c3ccc4c(c3)CC/C4=N\O)[nH]2)cc1`, the % of control in test [7] and in [8] was 100% in each case. On to `CCC(=O)N1CCN(c2ccc(-n3c(=O)ccc4cnc5ccc(-c6cnc7ccccc7c6)cc5c43)cc2C(F)(F)F)CC1`, for which, in test [9], the % of control worked out at 38%.

Consider `CC(=O)Nc1cccc(-n2c(=O)n(C3CC3)c(=O)c3c(Nc4ccc(I)cc4F)n(C)c(=O)c(C)c32)c1`, for which the % of control in test [10] was 107%. As for `C=CC(=O)Nc1ccc(C(=O)Nc2[nH]nc3c2CN(C(=O)N[C@H](CN(C)C)c2ccccc2)C3(C)C)cc1`, the % of engagement in [11] is -8.6%.

The values are drawn from ChEMBL document CHEMBL5465560, “Selectivity Literature for EUbOPEN Chemogenomic Library” (2024).
